Measurements from patent publication US12565474B2, “Discovery, total synthesis, and bioactivity of doscadenamides” (priority 2019, dated 2026).
“Also recorded” adds a separate entry of the source.

Key:
[1] = test system: pTIM5319 (lacks the AHL-binding site LasR); assay: Related reporter pTIM5319 lacking a functional AHL-binding domain; type: cell-based; settings: E. coli, 37° C., 6 h
Protocol: (§1) FIG. 16. depicts activating activity of doscadenamide A (1a) in related reporter pTIM5319, which lacks a functional AHL-binding domain. The bacterial cultures were treated with 1a in a dose-response manner and solvent control at 37° C. for 6 h before fluorescence was measured. Results are expressed as fold activation compared to solvent control. Data are presented as mean±SD, **P<0.01, ****P<0.0001, compared to solvent control using one-way ANOVA (n=3).
(§2) Lett. 1998, 163 (2), 185-192]. […] 2011, 7 (4), 1205-1216]. To validate the activating activity of 1a, its effect on wild-type P. aeruginosa was tested. […] For comparison, the other three diastereomers 1b, 1c and 1d were also included in the test. Such superagonists are expected to artificially regulate virulence factor production such as pyocyanin and activate QS at lower bacterial cell populations, thus to stimulate the host immune system to clear the infection when fewer bacterial cells are present [Galloway, W.; Hodgkinson, J.; Bovvden, S.; Welch, M.; Spring, D., Trends Microbiol. 2012, 20 (9), 449-458].
Doscadenamide A (1a) activates QS, which was established using the 3-oxo-C12-HSL-responsive reporter plasmid pSB1075, a plasmid encoding LasR (the C12 HSL receptor in Pseudomonas aeruginosa) and containing a light-producing luxCDABE cassette expressed in Escherichia coli. […]

wild-type P. aeruginosa = assay: Pyocyanin production in wild-type P. aeruginosa; type: cell-based, Pseudomonas aeruginosa; settings: 10 PM, 6 h shaking at 37° C.
Protocol: Data are presented as mean±SD, **P<0.01, ****P<0.0001, compared to solvent control using one-way ANOVA (n=3).
as §2

[2] = test system: P. aeruginosa mutant PAO-JP1; assay: Pyocyanin quantification in P. aeruginosa strain PAO-JP1; type: cell-based, Pseudomonas aeruginosa; settings: PAO-JP1, 6 h
Protocol: To follow up our previous study regarding the QS modulatory activity of doscadenamide A (1a) on wild-type P. aeruginosa and extend reporter gene assay studies, we examined the QS activation of different doscadenamides using a QS system deficient strain, PAO-JP1. PAO-JP1 is a P. aeruginosa mutant with a lasl deletion that cannot produce C12. […]
[…] The culture was then spun down for 10 min at the maximum speed, and the supernatant was collected and filtered using […] Eppendorf filters. 500 μL of the sterile supernatant were added to 500 μL CHCl3 in an Eppendorf tube. Tube shaking allowed for the extraction of pyocyanin in the CHCl3 layer. This layer was then added to 150 μL of 0.2 N HCl in another Eppendorf tube. After shaking, the aqueous layer and the organic layer were separated. 100 μL of the aqueous layer were transferred to a clear bottomed 384-well plate and the absorbance was measured at […] to quantify the pyocyanin production. Data was analyzed using GraphPad Prism 5 software.

V. harveyi BB120 strain = assay: Bioluminescence modulation in V. harveyi; type: cell-based, Vibrio harveyi; settings: for QS activation (bioluminescence, ΔLUM normalized by OD600): concentration range 10-200 PM
Protocol: FIGS. 19A-C depict QS activity in different systems. FIG. 19A is a graph showing activity of doscadenamide A (1a) in E. coli reporter gene assay using pSB1075 (wild-type) and point mutants (Y56F, W60F and D73N). […] C12 was used as the positive control. […] AI-1 is a reported quorum sensing autoinducer and was used as the positive control.
Bioluminescent V. harveyi BB120 strain (wild-ype) was cultivated in AB media overnight (15-16 h) at 30° C. (OD600 is about 2.0-2.5). The overnight cultivated strain […] was diluted to 10 mL by AB media (OD600<0.1). 100 μL the diluted BB120 strain was distributed to each well of 96-well white plate. The solution of each tested compound in DMSO (0.5 μL) at different concentration was added to BB120 cultures on plate. Triplicate was conducted for each compound and each concentration. After addition, bacterial cultures were incubated at 30° C. for 7 hours. Then the emitted luminescence and OD600 was measured by BioTek Synergy H1 plate reader. AI-1 and DMSO were used as positive control and negative control, respectively.

PARP = assay: Western blot of PARP cleavage in MDA-MB-231 cells with TRAIL; type: cell-based; settings: MDA-MB-231, TRAIL 20 ng/mL, compound 50 μM (FIG. 20E)
MDA-MB-231 cells = assay: MDA-MB-231 cell viability (MTT) with TRAIL, synergy evaluation; settings: for cell viability after pretreatment and TRAIL co-treatment: 3 h pretreatment (5 μM, 2 μM); for cell viability after pretreatment and TRAIL co-treatment / synergistic effect with TRAIL / sensitization (Bliss independence): then TRAIL 20 ng/mL for 24 h; for synergistic effect with TRAIL / sensitization (Bliss independence): 3 h pretreatment; for cytotoxicity compared to doscadenamide A (1a): MDA-MB-231
Protocol: MDA-MB-231 cell viability after 3 h pretreatment with DMSO (solvent control), C12 as well as doscadenamide A (1a) and its structural analogs, B) 5 μM and C) 2 μM followed by combined TRAIL (20 ng/mL) treatment for 24 h. […] MDA-MB-231 cells were treated with doscadenamide A (1a) and its structural analogs for 3 h, followed by treatment with TRAIL (20 ng/mL) for 24 h, C12 was included as positive control. “A Bliss independence” is the difference between observed growth inhibition and Bliss expectation. Values greater than zero represent a synergistic response, represented as red in the figure. Bliss expectation is C=(A+B)−(A×B), where A and B are the growth inhibition fractions of two compounds at a given dose. Cell viability was quantified using MTT assay.
MDA-MB-231 cells were pretreated with C12, doscadenamides or solvent control for 3 h and then stimulated with TRAIL for 24 h (FIGS. 20B and 20C). We measured cell viability and calculated the A Bliss independence of each compound with TRAIL.

LasR [3] = target: T1, LasR (Pseudomonas aeruginosa, UniProt P25084); assay: Quorum sensing reporter assay, pSB1075 (lasR-luxCDABE) expressed in E. coli; type: cell-based; design: expressed in transfected cells; host or cells: Escherichia coli carrying plasmid pSB1075; settings: 37° C., 6 h, dose-response, vs solvent control
T1 sequence (P25084 whole entry, the tested form may be a part): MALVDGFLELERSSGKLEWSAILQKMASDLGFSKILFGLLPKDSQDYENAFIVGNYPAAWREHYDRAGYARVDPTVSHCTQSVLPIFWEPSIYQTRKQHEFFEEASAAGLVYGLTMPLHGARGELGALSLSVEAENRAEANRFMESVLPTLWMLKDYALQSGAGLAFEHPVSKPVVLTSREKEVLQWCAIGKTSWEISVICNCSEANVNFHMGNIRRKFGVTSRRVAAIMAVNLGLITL
Protocol: as §1, with “15.” for “16.”, “pSB1075, the lasR-luxCDABE” for “related”, “constructs expressed in E. coli.” for “pTIM5319, which lacks a functional AHL-binding domain.”
as §2, with “449-458]. […]” for “449-458].”
Doscadenamide A (1a) in a dose-response manner and EtOH control were added to the corresponding wells in a 96-well plate and the solvent was allowed to evaporate. […] The plate was incubated at 37° C. for 6 h before the measurement of luminescence.

cancer cells = settings: cited from earlier work
LasR [4] = target: T1, LasR; settings: cited from earlier work

C#CCCCC[C@@H](C)C(=O)NCCCC[C@H]1C(OC)=CC(=O)N1C(=O)[C@H](C)CCCCC#C [Compound 1a, (R)-N-(4-((S)-3-methoxy-1-((R)-2-methyloct-7-ynoyl)-5-oxo-2,5-dihydro-1H-pyrrol-2-yl)butyl)-2-methyloct-7-ynamide]
activation of related reporter pTIM5319 [1]: abolished | production of QS pigment pyocyanin / QS modulation (wild-type P. aeruginosa): elevated | QS activation (pyocyanin production normalized for cell number) ([2]; 100 μM): 3 fold | QS activation (bioluminescence, ΔLUM normalized by OD600) (V. harveyi BB120 strain): activating across the concentration range tested | PARP cleavage (Western blot) (PARP): evident presence of cleaved PARP | cell viability after pretreatment and TRAIL co-treatment (MDA-MB-231 cells): clear decrease in cell viability | synergistic effect with TRAIL / sensitization (Bliss independence) (MDA-MB-231 cells): can effectively improve TRAIL-induced apoptosis | activation of 3-oxo-C12-HSL-responsive reporter plasmid pSB1075 (QS activation) (LasR [3]): can activate; also recorded: activates QS

C=CCCCC[C@@H](C)C(=O)NCCCC[C@H]1C(OC)=CC(=O)N1C(=O)[C@H](C)CCCCC=C [Compound 1f, Doscadenamide F]
QS activating activity at <100 μM (V. harveyi BB120 strain): reduced | cytotoxicity compared to doscadenamide A (1a) (MDA-MB-231 cells): improved cytoxicity

C#CCCCCCC(=O)NCCCC[C@H]1C(OC)=CC(=O)N1C(=O)[C@H](C)CCCCC#C [Compound 1j, Doscadenamide J]
QS activating activity at <100 μM (V. harveyi BB120 strain): reduced

CCCCCC[C@@H](C)C(=O)NCCCC[C@H]1C(OC)=CC(=O)N1C(=O)[C@H](C)CCCCCC [Compound 1k, Doscadenamide S4]
synergistic effect with TRAIL / sensitization (Bliss independence) (MDA-MB-231 cells): best agents to sensitize MDA-MB-231 cells | cytotoxicity compared to doscadenamide A (1a) (MDA-MB-231 cells): improved cytoxicity

C#CCCCC[C@@H](C)C(=O)NCCCC[C@@H]1NC(=O)C=C1OC [Compound 2a, Doscadenamide S8]
QS activation (pyocyanin production) without normalization for bacterial cell count [2]: did not show any level of activation | QS-activating effect (pyocyanin production normalized for cell number), in words ([2]; 100 μM): minimal QS-activating effect; also recorded: essentially inactive | QS activation (bioluminescence, ΔLUM normalized by OD600) (V. harveyi BB120 strain): consistently inhibited QS signaling | PARP cleavage (Western blot) (PARP): no effect | cell viability after pretreatment and TRAIL co-treatment (MDA-MB-231 cells): no effect on cell viability | synergistic effect with TRAIL / sensitization (Bliss independence) (MDA-MB-231 cells): synergistic effect with TRAIL, except 2a

C#CCCCC[C@@H](C)C(=O)N1C(=O)C=C(OC)[C@@H]1CCCCNC(=O)OC(C)(C)C [Compound 3a, Doscadenamide S10]
QS activation (pyocyanin production normalized for cell number) ([2]; 100 μM): 3 fold | QS activation (bioluminescence, ΔLUM normalized by OD600) (V. harveyi BB120 strain): activating across the concentration range tested

C=CCCCC[C@@H](C)C(=O)N1C(=O)C=C(OC)[C@@H]1CCCCNC(=O)OC(C)(C)C [Compound 3b, Doscadenamide S11]
QS activation (pyocyanin production normalized for cell number) ([2]; 100 μM): 4 fold | cytotoxicity compared to doscadenamide A (1a) (MDA-MB-231 cells): improved cytoxicity

CCCCCC[C@@H](C)C(=O)N1C(=O)C=C(OC)[C@@H]1CCCCNC(=O)OC(C)(C)C [Compound 3c, Doscadenamide S12]
QS activation (pyocyanin production normalized for cell number) ([2]; 100 μM): 5 fold | QS activation (bioluminescence, ΔLUM normalized by OD600) (V. harveyi BB120 strain): only had a minor activating trend | cell viability after pretreatment and TRAIL co-treatment (MDA-MB-231 cells): enhanced activity | synergistic effect with TRAIL / sensitization (Bliss independence) (MDA-MB-231 cells): best agents to sensitize MDA-MB-231 cells | cytotoxicity compared to doscadenamide A (1a) (MDA-MB-231 cells): improved cytoxicity

CCCCCCCCCC(=O)CC(=O)N[C@H]1CCOC1=O [Compound C12, reference compound]
QS activation (pyocyanin production normalized for cell number) ([2]; 100 μM): ~3 fold | synergistic effect on TRAIL-induced apoptosis reported in the literature (cancer cells): synergistic effect on TRAIL-induced apoptosis

CCCCCCC[C@@H]1C[C@H]1CCC(=O)O [lyngbyoic acid]
LasR / quorum sensing modulation reported in the literature (LasR [4]): strongly inhibit the activity of LasR

C=C(CCCCC)CCCC(=O)O [pitinoic acid A]
LasR / quorum sensing modulation reported in the literature (LasR [4]): P. aeruginosa quorum sensing inhibitor

TRAIL: tumor necrosis factor-related apoptosis-inducing ligand, a TNF family cytokine
fraction of cells undergoing apoptotic death (MDA-MB-231 cells; MDA-MB-231, TRAIL alone 20 ng/mL): approximately 20% | cell viability remaining (MDA-MB-231 cells; MDA-MB-231, TRAIL alone 500 ng/mL): 50%
